Source: ChEMBL document CHEMBL1149816, “Class II-selective histone deacetylase inhibitors. Part 2: alignment-independent GRIND 3-D QSAR, homology and docking studies” (Eur J Med Chem, 2008)

Legend:
[1] = biological target: Histone deacetylase HD1B (Zea mays, UniProt Q9ZTP8); assay: Inhibition of maize histone deacetylase 1B
[2] = Inhibition of maize histone deacetylase 1A; design: species or system Zea mays
[3] = test system: Zea mays; assay: Selectivity for IC50 of maize histone deacetylase 1A over IC50 of maize histone deacetylase 1B

Histone deacetylase HD1B, sequence (Q9ZTP8 whole entry): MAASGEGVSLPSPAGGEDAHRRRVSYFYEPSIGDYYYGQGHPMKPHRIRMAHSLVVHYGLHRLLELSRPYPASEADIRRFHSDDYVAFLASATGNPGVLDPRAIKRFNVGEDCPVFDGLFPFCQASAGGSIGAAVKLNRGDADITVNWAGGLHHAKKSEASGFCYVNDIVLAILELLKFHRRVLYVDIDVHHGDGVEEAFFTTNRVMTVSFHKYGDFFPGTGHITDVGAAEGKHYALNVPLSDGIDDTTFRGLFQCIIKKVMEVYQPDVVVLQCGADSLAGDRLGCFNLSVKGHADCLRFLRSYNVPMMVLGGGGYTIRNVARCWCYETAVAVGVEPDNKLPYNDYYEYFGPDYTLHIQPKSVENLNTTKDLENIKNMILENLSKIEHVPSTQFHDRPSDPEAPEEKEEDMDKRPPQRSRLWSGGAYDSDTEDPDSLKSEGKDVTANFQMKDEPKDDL

Compound | IC50 ([1]; read-out: IC50) | IC50 ([1]; read-out: pIC50 (converted)) | IC50 [2] | pIC50 [2] | Ratio IC50 [3]
Cn1cc(/C=C/C(=O)c2cc(F)ccc2F)cc1/C=C/C(=O)NO | 16.6 µM | 0.8 µM | 0.8 µM | 6.097 | 20.8
Cn1cc(/C=C/C(=O)c2cccs2)cc1/C=C/C(=O)NO | 25.8 µM | – | 16.3 µM | – | 1.6
COc1cccc(C(=O)/C=C/c2cc(/C=C/C(=O)NO)n(C)c2)c1 | 0.6 µM | – | 0.39 µM | – | 1.5
Cn1cc(/C=C/C(=O)c2ccco2)cc1/C=C/C(=O)NO | 19.7 µM | – | 1.2 µM | – | 16.4
Cn1cc(/C=C/C(=O)c2cccc(Cl)c2Cl)cc1/C=C/C(=O)NO | 17.2 µM | – | 6.8 µM | 6.243 | 2.5
Cn1cc(/C=C/C(=O)c2c(F)cccc2F)cc1/C=C/C(=O)NO | 0.807 µM | 17 µM | 0.167 µM | 5.553 | 4.8
Cn1cc(/C=C/C(=O)c2cccc(Cl)c2)cc1/C=C/C(=O)NO | 31.4 µM | – | 0.44 µM | – | 71.4
Cn1cc(/C=C/C(=O)c2ccc(-c3ccccc3)cc2)cc1/C=C/C(=O)NO | 31.8 µM | – | 2.2 µM | – | 14.4
Cn1cc(/C=C/C(=O)c2ccc(Cl)c(Cl)c2)cc1/C=C/C(=O)NO | 21.3 µM | – | 5.9 µM | 5.229 | 3.6
Cn1cc(/C=C/C(=O)c2cccc3ccccc23)cc1/C=C/C(=O)NO | 0.33 µM | – | 0.01 µM | – | 33
Cn1cc(/C=C/C(=O)c2ccccc2)cc1/C=C/C(=O)NO | 0.26 µM | – | 0.19 µM | – | –
Cc1cccc(C(=O)/C=C/c2cc(/C=C/C(=O)NO)n(C)c2)c1 | 2.5 µM | – | 0.17 µM | – | 14.7
Cn1cc(/C=C/C(=O)c2cccc(OC(F)(F)F)c2)cc1/C=C/C(=O)NO | 298 µM | – | 90 µM | 4.046 | 3.3
COc1ccccc1C(=O)/C=C/c1cc(/C=C/C(=O)NO)n(C)c1 | 0.17 µM | – | 0.16 µM | – | –
Cn1cc(/C=C/C(=O)c2ccc(F)c(F)c2)cc1/C=C/C(=O)NO | 13.5 µM | – | 2.2 µM | 5.658 | 6.1
Cn1cc(/C=C/C(=O)c2ccsc2)cc1/C=C/C(=O)NO | 22.6 µM | – | 13.8 µM | – | 1.6
Cn1cc(/C=C/C(=O)c2ccc(F)c(Cl)c2)cc1/C=C/C(=O)NO | 1.4 µM | 0.621 µM | 0.5 µM | 6.733 | 2.8
Cn1cc(/C=C/C(=O)c2ccc3ccccc3c2)cc1/C=C/C(=O)NO | 1.8 µM | – | 0.04 µM | – | 45
Cn1cc(/C=C/C(=O)c2cccc(Br)c2)cc1/C=C/C(=O)NO | 0.48 µM | – | 1.6 µM | – | –
Cn1cc(/C=C/C(=O)c2ccc3c(c2)CCO3)cc1/C=C/C(=O)NO | 6.4 µM | – | 2.1 µM | – | 3

Compound | IC50 ([1]; read-out: IC50) | IC50 ([1]; read-out: pIC50 (converted)) | IC50 [2] | pIC50 [2] | Ratio IC50 [3]
Cn1cc(/C=C/C(=O)c2ccc3c(c2)OCCO3)cc1/C=C/C(=O)NO | 0.621 µM | – | 0.185 µM | 6.708 | 3.4
Cn1cc(/C=C/C(=O)c2cccc(C(F)(F)F)c2)cc1/C=C/C(=O)NO | 159 µM | – | 9.3 µM | 5.032 | 17.1
COc1ccc(C(=O)/C=C/c2cc(/C=C/C(=O)NO)n(C)c2)cc1 | 0.8 µM | – | 0.79 µM | – | –
Cn1cc(/C=C/C(=O)c2ccccc2Cl)cc1/C=C/C(=O)NO | 1.6 µM | – | 0.05 µM | – | 32
CC(/C=C/C(=O)NO)=C\[C@@H](C)C(=O)c1ccc(N(C)C)cc1 [TRICHOSTATIN] | – | – | 0.0008 µM | – | –
Cn1cc(/C=C/C(=O)c2cccc(F)c2)cc1/C=C/C(=O)NO | 38.8 µM | – | 0.22 µM | – | 176
Cc1ccccc1C(=O)/C=C/c1cc(/C=C/C(=O)NO)n(C)c1 | 0.39 µM | – | 0.06 µM | – | 6.5
Cn1cc(/C=C/C(=O)c2ccc(Cl)cc2)cc1/C=C/C(=O)NO | 29.4 µM | – | 18.6 µM | – | –
Cn1cc(/C=C/C(=O)c2ccc(F)cc2)cc1/C=C/C(=O)NO | 24.9 µM | – | 15.7 µM | – | 1.6
Cn1cc(/C=C/C(=O)c2cc(F)cc(F)c2)cc1/C=C/C(=O)NO | 23.5 µM | – | – | 5.678 | 11.2
Cn1cc(/C=C2\CCc3ccccc3C2=O)cc1/C=C/C(=O)NO | 59 µM | 0.807 µM | 3.4 µM | 6.777 | 17.3
Cc1ccc(C(=O)/C=C/c2cc(/C=C/C(=O)NO)n(C)c2)cc1 | 4.8 µM | – | 0.5 µM | – | 9.6
Cn1cc(/C=C/C(=O)c2cc3ccccc3o2)cc1/C=C/C(=O)NO | 12 µM | 59 µM | 3 µM | 5.469 | 4
Cn1cc(/C=C2\CCCc3ccccc3C2=O)cc1/C=C/C(=O)NO | 0.51 µM | 1.4 µM | 0.196 µM | 6.301 | 2.6
C/C(=C\c1cc(/C=C/C(=O)NO)n(C)c1)C(=O)c1ccccc1 | 0.57 µM | – | 0.78 µM | – | –
Cn1cc(/C=C/C(=O)c2ccccc2Br)cc1/C=C/C(=O)NO | 0.18 µM | – | 0.21 µM | – | –
Cn1cc(/C=C/C(=O)c2ccccc2F)cc1/C=C/C(=O)NO | 3.4 µM | – | 0.1 µM | – | 34
Cn1cc(/C=C/C(=O)c2ccc(Br)cc2)cc1/C=C/C(=O)NO | 24.3 µM | – | 20.3 µM | – | 1.2
Cn1cc(/C=C/C(=O)c2ccc(Cl)cc2Cl)cc1/C=C/C(=O)NO | 17 µM | – | 2.8 µM | 5.523 | 6.1
CC/C(=C\c1cc(/C=C/C(=O)NO)n(C)c1)C(=O)c1ccccc1 | 4.5 µM | – | 0.22 µM | – | 20.4
